Test results taken from patent US20110288052A1, “NOVEL COMPOUNDS, PHARMACEUTICAL COMPOSITIONS CONTAINING SAME, AND METHODS OF USE FOR SAME” (priority 2008, published 2011).
≈ marks a conversion by molar mass, not a printed value. Like-named read-outs stand apart in the source and are kept apart here.

How the values were obtained:
[1] = tested on: MCF-7 human breast cancer cells; test: XTT cytotoxicity assay, MCF-7 (M); assay type: cell-based; details: MCF7, MCF-7, 72 hours
Experimental: XTT Cytotoxicity Assay The XTT assay is a non-radioactive alternative for the [^51Cr] release cytotoxicity assay. XTT is a tetrazolium salt that is reduced to a formazan dye only by metabolically active, viable cells. The reduction of XTT is measured spectrophotometrically as OD490-OD650. To measure the cytotoxicity of specific compounds against cancer cells, 9×10^3 MCF-7 human breast cancer cells (shown in the tables as “(M)”), obtained from the American Type Culture Collection are plated per well in 96 well plates in DMEM medium with 10% fetal bovine serum, insulin, penicillin, and streptomycin. Following overnight culture at 37° C. and 5% CO2, the compounds to be tested, dissolved in DMSO, are added to the wells in 1 μl volume at the following concentrations: 80, 40, 20, 10, 5, 2.5, 1.25, and 0.625 μg/ml in triplicate. Additional concentrations are tested if required. 1 μl of DMSO is added to triplicate wells are the vehicle control. C75 is run at 40, 20, […], and 5 μg/ml in triplicate as positive controls. After 72 hours of incubation, cells are incubated for 4 hours with the XTT reagent as per manufacturer's instructions (Cell Proliferation Kit II (XTT) Roche). Plates are read at OD490 and OD650 on a Molecular Devices SpectraMax Plus Spectrophotometer. Three wells containing the XTT reagent without cells serve as the plate blank. XTT data are reported as OD490-OD650. Averages and standard error of the mean are computed using SOFTmax Pro software (Molecular Dynamics). The IC50 for the compounds is defined as the concentration of drug leading to a 50% reduction in OD490-OD650 compared to controls. The OD490-OD650 are computed by the SOFTmax PRO software (Molecular Devices) for each compound concentration. IC50 is calculated by linear regression, plotting the FAS activity as percent of control versus drug concentrations. Linear regression, best-fit line, r^2, and 95% confidence intervals are determined using Prism Version 3.0 (Graph Pad Software).

[2] = tested on: OVCAR3 cells; test: XTT cytotoxicity assay, OVCAR3 (OV); assay type: cell-based; details: Homo sapiens
Experimental: (§1) XTT Cytotoxicity Assay The XTT assay is a non-radioactive alternative for the [^51Cr] release cytotoxicity assay. XTT is a tetrazolium salt that is reduced to a formazan dye only by metabolically active, viable cells. The reduction of XTT is measured spectrophotometrically as OD490-OD650. To measure the cytotoxicity of specific compounds against cancer cells, 9×10^3 MCF-7 human breast cancer cells (shown in the tables as “(M)”), obtained from the American Type Culture Collection are plated per well in 96 well plates in DMEM medium with 10% fetal bovine serum, insulin, penicillin, and streptomycin. Following overnight culture at 37° C. and 5% CO2, the compounds to be tested, dissolved in DMSO, are added to the wells in 1 μl volume at the following concentrations: 80, 40, 20, 10, 5, 2.5, 1.25, and 0.625 μg/ml in triplicate. Additional concentrations are tested if required. 1 μl of DMSO is added to triplicate wells are the vehicle control. C75 is run at 40, 20, […], and 5 μg/ml in triplicate as positive controls. After 72 hours of incubation, cells are incubated for 4 hours with the XTT reagent as per manufacturer's instructions (Cell Proliferation Kit II (XTT) Roche). Plates are read at OD490 and OD650 on a Molecular Devices SpectraMax Plus Spectrophotometer. Three wells containing the XTT reagent without cells serve as the plate blank. XTT data are reported as OD490-OD650. Averages and standard error of the mean are computed using SOFTmax Pro software (Molecular Dynamics). The IC50 for the compounds is defined as the concentration of drug leading to a 50% reduction in OD490-OD650 compared to controls. The OD490-OD650 are computed by the SOFTmax PRO software (Molecular Devices) for each compound concentration. IC50 is calculated by linear regression, plotting the FAS activity as percent of control versus drug concentrations. Linear regression, best-fit line, r^2, and 95% confidence intervals are determined using Prism Version 3.0 (Graph Pad Software). The test was also run against OVCAR3 cells (“OV”), and HCT116 cells (“H”).

[3] = tested on: HCT116 cells; test: XTT cytotoxicity assay, HCT116 (H); assay type: cell-based; details: Homo sapiens, HCT-116
Experimental: as §1

[4] = tested on: MCF-7 human breast cancer cells (fatty acid oxidation pathway activity); test: Fatty acid oxidation ([14C]palmitate to acid soluble products); assay type: cell-based
Experimental: Measurement of Fatty Acid Oxidation and Determination of SC150 of Compounds This assay measures the degradation of [^14C]palmitate into acid soluble products and is a measure of fatty acid oxidation pathway activity in vitro. It is utilized to measure fatty acid oxidation in vitro. MCF-7 human breast cancer cells cultured as above, are plated at 2.5×10^5 cells per well in 24-well plates. Following overnight incubation, the compounds to be tested, solubilized in DMSO, are added at […], 0.39, 1.56, 6.25, 25, and 100 μg/ml in triplicate, with lower concentrations tested if necessary. DMSO is added to triplicate wells for a vehicle control. C75 is run at 5 and 10 μg/ml in triplicate as positive controls. After 1 hour of incubation, medium is removed 100 uM of [^14C] palmitate in cyclodextran and 200 uM carnitine in serum free medium (250 μl volume) is added to each well. After 30 minutes of additional incubation, the reaction is stopped by addition of 2.6N HClO4. Contents of each well are transferred to 1.5 ml Eppendorf tubes and 4N KOH is added. The tubes are incubated for 30 minutes at 60° C. 1 M NaAcetate and 3N H2SO4 is added to each tube and vortexed. The tubes are centrifuged at 1000 rpm for 5 minutes at RT. 250 μl of the supernatant is transferred to a 2 ml eppendorf tube. To each tube is added: 938 μl of chloroform:methanol (1:1), 468 μl chloroform and 281 μl of deionized water. The tubes are vortexed and centrifuged at 1000 rpm for 5 minutes at RT. 750 μl of the upper phase is transferred into a scintillation vial 5 ml of scintillant is added and vials are counted for 1 minute for ^14C. The Beckman Scintillation counter calculates the average cpm values for triplicates. The SC150 for the compounds is defined as the concentration of drug leading to a 150% increase in production of acid soluble products of [^14C] palmitate as compared to untreated controls. This is determined by plotting the average cpm for each inhibitor concentration tested, performing linear regression and computing the best-fit line, r^2 values, and 95% confidence intervals. The average cpm values are computed by the Beckman scintillation counter (Model LS6500) for each compound concentration. Computation of linear regression, best-fit line, r^2, and 95% confidence intervals are calculated using Prism Version 3.0 (Graph Pad Software). If a compound fails to achieve this 150% threshold it is considered negative. The maximum value achieved is also reported (FAO Max).

[5] = Solubility problem noted during the assays; assay type: physicochemical; details: read-out: Sol Prob (solubility problem at concentration)
[6] = tested on: MCF-7 human breast cancer cells (fatty acid synthesis pathway activity); test: [14C]acetate incorporation into total lipids; assay type: cell-based; details: MCF7, [14C]acetate incorporation into lipids
Experimental: Measurement of [^14C]acetate Incorporation into Total Lipids and Determination of IC50 of Compounds. This assay measures the incorporation of [^14C]acetate into total lipids and is a measure of fatty acid synthesis pathway activity in vitro. It is utilized to measure inhibition of fatty acid synthesis in vitro.
MCF-7 human breast cancer cells cultured as above, are plated at 5×10^4 cells per well in 24-well plates. Following overnight incubation, the compounds to be tested, solubilized in DMSO, are added at 5, 10, and 20 μg/ml in triplicate, with lower concentrations tested if necessary. DMSO is added to triplicate wells for a vehicle control. C75 is run at 5 and 10 μg/ml in triplicate as positive controls. After 4 hours of incubation, 0.25 μCi of [^14C]acetate (10 μl volume) is added to each well.
After 2 hours of additional incubation, medium is aspirated from the wells and 800 μl of chloroform:methanol (2:1) and 700 μl of 4 mM MgCl2 is added to each well. Contents of each well are transferred to 1.5 Eppendorf tubes, and spun at full-speed for 2 minutes in a high-speed Eppendorf Microcentrifuge 5415D. After removal of the aqueous (upper) layer, an additional 700 μl of chloroform:methanol (2:1) and 500 μl of 4 mM MgCl2 are added to each tube and then centrifuged for 1 minutes as above. The aqueous layer is removed with a Pasteur pipette and discarded. An additional 400 μl of chloroform:methanol (2:1) and 200 μl of 4 mM MgCl2 are added to each tube, then centrifuged and aqueous layer is discarded. The lower (organic) phase is transferred into a scintillation vial and dried at 40° C. under N2 gas. Once dried, 3 ml of scintillant (APB #NBC5104) is added and vials are counted for ^14C. The Beckman Scintillation counter calculates the average cpm values for triplicates.
The IC50 for the compounds is defined as the concentration of drug leading to a 50% reduction in [^14C]acetate incorporation into lipids compared to controls. This is determined by plotting the average cpm for each inhibitor concentration tested, performing linear regression and computing the best-fit line, r^2 values, and 95% confidence intervals. The average cpm values are computed by the Beckman scintillation counter (Model LS6500) for each compound concentration. Computation of linear regression, best-fit line, r^2, and 95% confidence intervals are calculated using Prism Version 3.0 (Graph Pad Software).

[7] = tested on: Enterococcus faecalis (ATCC # 29212); test: Broth microdilution antimicrobial assay, E. faecalis; assay type: cell-based
Experimental: Antimicrobial Properties A broth microdilution assay is used to assess the antimicrobial activity of the compounds. Compounds are tested at twofold serial dilutions, and the concentration that inhibits visible growth (OD600 at 10% of control) is defined as the MIC. Microorganisms tested include Staphylococcus aureus (ATCC # 29213), Enterococcus faecalis (ATCC # 29212), Pseudomonas aerpginosa (ATCC # 27853), and Escherichia coli (ATCC # 25922). The assay is performed in two growth media, Mueller Hinton Broth and Trypticase Soy Broth.
A blood (Tsoy/5% sheep blood) agar plate is inoculated from frozen stocks maintained in T soy broth containing 10% glycerol and incubated overnight at 37° C. Colonies are suspended in sterile broth so that the turbidity matches the turbidity of a 0.5 McFarland standard. The inoculum is diluted 1:10 in sterile broth (Mueller Hinton or Trypticase soy) and 195 μl is dispensed per well of a 96-well plate. The compounds to be tested, dissolved in DMSO, are added to the wells in 5 μl volume at the following concentrations: 25, 12.5, 6.25, 3.125, 1.56 and 0.78 μg/ml in duplicate. Additional concentrations are tested if required. 5 μl of DMSO added to duplicate wells are the vehicle control. Serial dilutions of positive control compounds, vancomycin (E. faecalis and S. aureus) and tobramycin (E. coli and P. aerpginosa), are included in each run.
After 24 hours of incubation at 37° C., plates are read at OD600 on a Molecular Devices SpectraMax Plus Spectrophotometer. Average OD600 values are computed using SOFTmax Pro Software (Molecular Devices) and MIC values are determined by linear regression analysis using Prism version 3.02 (Graph Pad Software, San Diego). The MIC is defined as the concentration of compound required to produce an OD600 reading equivalent to 10% of the vehicle control reading.

Compound	solubility ([5]; noted under the 14C column, unit inferred)	IC50 [6]	solubility [5]	EF/MH (MIC) ([7]; Mueller Hinton Broth)	EF/Tsoy (MIC) ([7]; Trypticase Soy Broth)	IC50 [1]	IC50 ([2]; OVCAR-3, unit given as ml)	IC50 [3]	Emax at 6.25 µg/mL ([4]; Homo sapiens, MCF7, at 6.25 μg/ml, read-out: FAO Max)	FAO SC 150 ([4]; concentration leading to 150% of control acid soluble products, Neg = threshold not reached)	IC50 ([2]; OVCAR-3)	Emax at 0.098 µg/mL ([4]; Homo sapiens, MCF7, at 0.098 μg/ml, read-out: FAO Max)
CCCCCCCCC1(C)SC(=O)C=C1OCC(=O)Nc1ccc(C(=O)OC)cc1 (stereo not shown)	80 µg/mL (≈ 185 µM)					6.5 µg/mL (≈ 15 µM)	12.7 µg/mL (≈ 29.3 µM)	6.3 µg/mL (≈ 14.5 µM)	126%	Neg		
CCCCCCCCC1(C)SC(=O)C=C1OCC(=O)Nc1ccc(C(N)=O)cc1 (stereo not shown)		12.3 µg/mL (≈ 29.4 µM)	80 µg/mL (≈ 191 µM)			10.2 µg/mL (≈ 24.4 µM)		10.6 µg/mL (≈ 25.3 µM)			21.5 µg/mL (≈ 51.4 µM)	
CCCCCCCCC1(C)SC(=O)C=C1OCC(=O)N1CCN(Cc2ccc(OC)cc2)CC1 (stereo not shown)						13.6 µg/mL (≈ 27.8 µM)		69.7 µg/mL (≈ 143 µM)			79.8 µg/mL (≈ 163 µM)	83%

The next lines start with results.

solubility ([5]; noted under the 14C column, unit inferred)	IC50 [6]	solubility [5]	EF/MH (MIC) ([7]; Mueller Hinton Broth)	EF/Tsoy (MIC) ([7]; Trypticase Soy Broth)	Compound	IC50 [1]	IC50 ([2]; OVCAR-3, unit given as ml)	IC50 [3]	Emax at 6.25 µg/mL ([4]; Homo sapiens, MCF7, at 6.25 μg/ml, read-out: FAO Max)	FAO SC 150 ([4]; concentration leading to 150% of control acid soluble products, Neg = threshold not reached)	IC50 ([2]; OVCAR-3)	Emax at 0.098 µg/mL ([4]; Homo sapiens, MCF7, at 0.098 μg/ml, read-out: FAO Max)
			Neg	Neg	CCCCCCCCC1(C)SC(=O)C=C1OCC(=O)Nc1ccc(C)cc1 (stereo not shown)	6.8 µg/mL (≈ 17.5 µM)		12.8 µg/mL (≈ 32.9 µM)			8.1 µg/mL (≈ 20.8 µM)	
	> 80 µg/mL	80 µg/mL (≈ 200 µM)			CCCCCCCCC1(C)SC(=O)C=C1OCC(=O)Nc1ccc(C#N)cc1 (stereo not shown)	3.8 µg/mL (≈ 9.49 µM)		5.3 µg/mL (≈ 13.2 µM)			6.6 µg/mL (≈ 16.5 µM)	
